Results reported in the supplement of paper PMC8633005.

Tests used:
SK-MEL-2 = experiment: drug sensitivity score (DSS) (DSS (unitless, 0-50 scale)); higher = more sensitive (stronger viability inhibition); extreme values may be limits of the assay; details: 72 h; culture: 2D
Summary of the method: (§1)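 A 527-compound oncology library was screened in 384-well plates against melanoma cell lines and patient-derived melanoma cultures grown in 2D, the cultures at 1000–1500 cells per well. Each compound, in DMSO or water, was applied at five concentrations over a 10,000-fold range and incubated for 72 h at 37 °C before CellTiter-Glo luminescence readout of viability. A drug sensitivity score, a modified area-under-curve measure, was calculated from curves fitted in the in-house Breeze software.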

WM165 = experiment: as above; details: 72 h; culture: 2D
Summary of the method: as §1

Bowes = experiment: as above; details: 72 h; culture: 2D
Summary of the method: as §1

WM852 = experiment: as above; details: 72 h; culture: 2D
Summary of the method: as §1

FM-MEL-2 [1] = experiment: as above; details: 72 h; culture: 2D
Summary of the method: as §1

SK-MEL-28 = experiment: as above; details: 72 h; culture: 2D
Summary of the method: as §1

FM-MEL-3 [2] = experiment: as above; details: 72 h; culture: 2D
Summary of the method: as §1

FM-MEL-6 [3] = experiment: as above; details: 72 h; culture: 2D
Summary of the method: as §1

FM-MEL-2 [4] = experiment: drug sensitivity score (DSS) (DSS (unitless)); higher = more sensitive; details: 72 h
Method: (§2)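 Validation dose-response testing of selected drugs on NRAS-mutant melanoma patient-derived cells, run in 2D culture and in 3D spheroids (ultra-low attachment plates), in triplicate per concentration. Viability was read by CellTiter-Glo after 72 h. EC50 came from Breeze curve fitting, and DSS was calculated from the curve.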

FM-MEL-3 [5] = experiment: as above; details: 72 h
Method: as §2

FM-MEL-6 [6] = experiment: as above; details: 72 h
Method: as §2

FM-MEL-2 [7] = details: 72 h
Method: as §2

FM-MEL-3 [8] = details: 72 h
Method: as §2

FM-MEL-6 [9] = details: 72 h
Method: as §2

SMILES | drug sensitivity score (SK-MEL-2) | drug sensitivity score (WM165) | drug sensitivity score (Bowes) | drug sensitivity score (WM852) | drug sensitivity score (FM-MEL-2 [1]) | drug sensitivity score (SK-MEL-28) | drug sensitivity score (FM-MEL-3 [2]) | drug sensitivity score (FM-MEL-6 [3]) | drug sensitivity score (FM-MEL-2 [4]; culture: 2D) | drug sensitivity score (FM-MEL-2 [4]; culture: 3D spheroid) | drug sensitivity score (FM-MEL-3 [5]; culture: 2D) | drug sensitivity score (FM-MEL-3 [5]; culture: 3D spheroid) | drug sensitivity score (FM-MEL-6 [6]; culture: 2D) | drug sensitivity score (FM-MEL-6 [6]; culture: 3D spheroid) | EC50 (cell viability) (FM-MEL-2 [7]; culture: 2D) | EC50 (cell viability) (FM-MEL-2 [7]; culture: 3D spheroid) | EC50 (cell viability) (FM-MEL-3 [8]; culture: 2D) | EC50 (cell viability) (FM-MEL-3 [8]; culture: 3D spheroid) | EC50 (cell viability) (FM-MEL-6 [9]; culture: 2D) | EC50 (cell viability) (FM-MEL-6 [9]; culture: 3D spheroid)
COc1ccc(-c2ccc3c(N4CCOC[C@@H]4C)nc(N4CCOC[C@@H]4C)nc3n2)cc1CO [AZD8055] | 13.9 | 21.7 | 20.1 | 15 | 15.6 | 16.4 | 14.2 | 17.3 | 18.2 | 18.1 | 20.3 | 26.2 | 11.3 | 13.4 | 60.6 nM | 54.1 nM | 72.8 nM | 50.7 nM | 94.2 nM | 66.2 nM
C=CCn1c(=O)c2cnc(Nc3ccc(N4CCN(C)CC4)cc3)nc2n1-c1cccc(C(C)(C)O)n1 [AZD1775] | 11.3 | 13.1 | 15.2 | 14.5 | 7.6 | 4.3 | 12.8 | 12.5 | 5.8 | 4.5 | 14 | 15.6 | 1.7 | 0 | 378 nM | 364 nM | 242 nM | 257 nM | 1800 nM | > 10000 nM
Cn1cnc2c(F)c(Nc3ccc(Br)cc3F)c(C(=O)NOCCO)cc21 [Binimetinib] | 6.3 | 9.5 | 0 | 0.4 | 8.7 | 8.8 | 13.7 | 7.7 | 11 | 12.9 | 19.5 | 21.1 | 9.4 | 15.7 | 40.3 nM | 28.8 nM | 7.2 nM | 10.1 nM | 34.3 nM | 15.7 nM
Cn1cnc2c(F)c(Nc3ccc(Br)cc3Cl)c(C(=O)NOCCO)cc21 [Selumetinib] | 13.2 | 17.3 | 0 | 4.9 | 16.5 | 18.2 | 24.9 | 13 | 19.7 | 20.3 | 23.8 | 27.1 | 16.3 | 21.9 | 75.6 nM | 71 nM | 78.9 nM | 56.4 nM | 83.6 nM | 56.1 nM
CC(C)Nc1cc(-c2c[nH]c(C(=O)N[C@H](CO)c3cccc(Cl)c3)c2)c(Cl)cn1 [Ulixertinib] | 9.7 | 12.6 | 4.2 | 4.1 | 15 | 13.3 | 17.1 | 7.6 | 16.5 | 19.4 | 17 | 25.2 | 8.1 | 15.3 | 127 nM | 76 nM | 279 nM | 83.1 nM | 236 nM | 125 nM
O=C(c1ccc(F)c(F)c1Nc1ccc(I)cc1F)N1CC(O)([C@@H]2CCCCN2)C1 [Cobimetinib] | 11.5 | 21.3 | 0.3 | 4.3 | 15.5 | 21.3 | 20.7 | 9.4 | 20.2 | 21.8 | 20.7 | 26.6 | 10.4 | 19.5 | 5.7 nM | 4 nM | 12.5 nM | 6.2 nM | 28.1 nM | 8.1 nM
COc1cc(OC)c(/C=C/S(=O)(=O)Cc2ccc(OC)c(NCC(=O)O)c2)c(OC)c1 [Rigosertib] | 17 | 21.4 | 19.9 | 22.6 | 7.6 | 9.5 | 15.5 | 18.6 | 10.8 | 10.5 | 13.2 | 16.9 | 8.6 | 1.3 | 44.2 nM | 110 nM | 42 nM | 39.2 nM | 56.2 nM | 1540 nM
COc1ncc(-c2ccc3nccc(-c4ccnnc4)c3c2)cc1NS(=O)(=O)c1ccc(F)cc1F [Omipalisib] | 9.5 | 15.5 | 16.9 | 13.8 | 15.3 | 16.3 | 17.9 | 14.7 | 16.9 | 17.5 | 24.1 | 27.3 | 14.9 | 19 | 5.5 nM | 4 nM | 7.3 nM | 5.2 nM | 5.5 nM | 4.4 nM
CC(=O)Nc1cccc(-n2c(=O)n(C3CC3)c(=O)c3c(Nc4ccc(I)cc4F)n(C)c(=O)c(C)c32)c1 [Trametinib] | 17.9 | 21.2 | 1.8 | 6.8 | 18.1 | 21.1 | 26.1 | 15.6 | 22.3 | 23.3 | 27.6 | 34.6 | 17.1 | 24 | 0.6 nM | 0.5 nM | 0.8 nM | 0.2 nM | 1.3 nM | 0.5 nM
Cn1c(=O)n(-c2ccc(C(C)(C)C#N)cc2)c2c3cc(-c4cnc5ccccc5c4)ccc3ncc21 [Dactolisib] | 9.9 | 17.6 | 12.8 | 10.7 | 12.5 | 13.5 | 15.1 | 15.1 | 13.5 | 14.6 | 13.7 | 22.9 | 7.4 | 10.1 | 15.2 nM | 12.1 nM | 22.6 nM | 7.4 nM | 26.9 nM | 13.1 nM
CC(C)NC(=O)COc1cccc(-c2nc(Nc3ccc4[nH]ncc4c3)c3ccccc3n2)c1 [KD025] | 0 | 5.4 | 2.6 | 7.5 | 18.9 | 1.6 | 13 | 3 | 21.7 | 24.2 | 0 | 4.5 | 0 | 0 | 55.7 nM | 42.8 nM | > 5000 nM | 440 nM | > 5000 nM | > 5000 nM
CC(C)(C)c1cc(NC(=O)Nc2ccc(-c3cn4c(n3)sc3cc(OCCN5CCOCC5)ccc34)cc2)no1 [Quizartinib] | 0 | 1 | 1.2 | 0.3 | 10.5 | 0 | 5.1 | 0 | 10.5 | 14.5 | 0 | 0 | 0 | 0 | 95.7 nM | 45.3 nM | > 1000 nM | > 1000 nM | > 1000 nM | > 1000 nM
Cc1cn(-c2cc(NC(=O)c3ccc(C)c(Nc4nccc(-c5cccnc5)n4)c3)cc(C(F)(F)F)c2)cn1 [Nilotinib] | 0 | 0 | 0 | 0.8 | 12.4 | 0 | 8.5 | 2.1 | 10.9 | 16.7 | 9.5 | 15.1 | 0 | 0 | 869 nM | 270 nM | 940 nM | 266 nM | > 10000 nM | > 10000 nM
